Measurements as given in patent publication US20170258930A1, “SKIN PENETRATING PEPTIDES (SPPS) AND METHODS OF USE THEREFOR” (The Regents of the University of California, priority 2014, published 2017).

Each sequence was assayed on full thickness porcine skin (assay: Phage display library (PDL) screening for skin penetrating peptides on porcine skin in Franz diffusion cells). Conditions: after third round of screening; phage-displayed 12-mer peptides; four different skin samples (n = 4); receptor collected after 24 hours.
Format: in vitro ADME
Method: Phage Display Library (PDL) screening was performed on full thickness porcine skin using Franz diffusion cells. Porcine skin was sandwiched in between the donor and receptor compartments in such a way that SC faced the donor compartment. Phosphate-buffered saline (PBS: 10 mM), pH 7.4 (12 ml) was added in the receptor compartment. The skin was equilibrated at 37° C. for 0.5-1 hours before the experiment. The skin integrity was determined by measuring the skin conductivity.
To perform PDL screening, 1×10^11 plaque forming units (pfu) of phages from a 12-mer phage display peptide library (PDL) were added into the donor compartment and covered with parafilm to maintain the occlusive condition. Phage particles which permeated across the skin were collected from the receptor chamber after 24 hours and amplified using a standard M13 phage amplification protocol. Amplified pool of phages (1×10^11 pfu) was loaded again in the donor chamber for another round of screening. In this way, three rounds of screenings were performed.
After third round of screening, DNAs were isolated from phages, which crossed the skin consistently in higher numbers, and sent for DNA sequencing to analyze the peptide present on their surface. After three round of screening, seven (7) peptide sequences that consistently crossed the skin were identified (see Table 3). […] The identified peptides, SEQ ID NOs: 1-7, are referred to herein as skin penetrating peptides (SPPs).
With “HIITDPNMAEYL [HIITDPNMAEYL (SEQ ID NO: 1), 12-mer skin penetrating peptide (SPP) identified by phage display library screening on porcine skin]” the “Frequency (how many times a same peptide sequence was identified when 31 peptides were randomly picked from the receptor compartment)” value (“Frequency” for short) was 8 out of 31. “SHMQNRPASDEH [SHMQNRPASDEH (SEQ ID NO: 4), 12-mer skin penetrating peptide (SPP) identified by phage display library screening on porcine skin]” was tested, and the “Frequency” value was 3 out of 31. “LVPDRMTAISRA [LVPDRMTAISRA (SEQ ID NO: 6), 12-mer skin penetrating peptide (SPP) identified by phage display library screening on porcine skin]” was tested, and the “Frequency” value was 2 out of 31. With “SYTQRADSTTLH [SYTQRADSTTLH (SEQ ID NO: 2), 12-mer skin penetrating peptide (SPP) identified by phage display library screening on porcine skin]” the “Frequency” value was 3 out of 31. With “NSLRNYDFLITM [NSLRNYDFLITM (SEQ ID NO: 7), 12-mer skin penetrating peptide (SPP) identified by phage display library screening on porcine skin]” the “Frequency” value was 2 out of 31. For “GYGFSNTNSFFV [GYGFSNTNSFFV (SEQ ID NO: 3), 12-mer skin penetrating peptide (SPP) identified by phage display library screening on porcine skin]”, the “Frequency” value was 3 out of 31. For “AYNAGSILENNF [YNAGSILENNF (SEQ ID NO: 5), 12-mer skin penetrating peptide (SPP) identified by phage display library screening on porcine skin]”, the “Frequency” value was 2 out of 31.

Same assay, conditions: after three rounds of screening, full thickness porcine skin
With “HIITDPNMAEYL [HIITDPNMAEYL (SEQ ID NO: 1), 12-mer skin penetrating peptide (SPP) identified by phage display library screening on porcine skin]” the “Crossing of the skin by phage displaying the peptide (in words)” value was “crossed the skin at very high frequency”.
